In publication PMC5518105, “Identification and characterization of the antiplasmodial activity of Hsp90 inhibitors” (Malaria Journal, 2017):
pIC50, pKd: −log10 of the molar value. Entries after “also recorded” stand apart in the source; their conditions may differ. Like-named read-outs stand apart in the source and are kept apart here.

Columns and labels:
P. falciparum Hsp90 = P. falciparum Hsp90 (Plasmodium falciparum, UniProt Q8IC05); assay: biochemical; format: binding
Experimental: (§1) Full-length human recombinant HSP90α was purchased (Cayman Chemicals, MI), while the malaria recombinant parasite proteins were generated according to the following protocol. […] Growth at 37 °C continued until the OD600 reached ~1.0, whereupon the temperature was lowered to 18 °C and protein expression was induced by the addition of 1 mM isopropyl β-D-thiogalactopyranoside (IPTG). Overnight post-induction cells were collected by centrifugation and resuspended in binding buffer [50 mM Hepes pH 7.5, 500 mM NaCl, 1 mM benzamidine, and 1 mM phenylmethanesulfonyl fluoride (PMSF)]. The cells were lysed by adding chemical lysis buffer (2% CHAPS, 0.1 mg/mL lysozyme and 0.5 U/mL benzonase), the lysate was clarified by centrifugation. The supernatant was loaded on to a nickel-nitrilotriacetic acid column pre-equilibrated with binding buffer (50 mM Hepes pH 7.5, 500 mM NaCl). Following a wash step with binding buffer containing 5 mM imidazole, the bound protein was eluted with elution buffer (50 mM Hepes pH 7.5, 500 mM NaCl, 250 mM imidazole). The eluate was then loaded on to a 16/60 Superdex 200 size exclusion column pre-equilibrated with 50 mM Hepes pH 7.5 and 500 mM NaCl. Target protein-containing fractions were pooled and concentrated using centrifugal filter units (Amicon). The final protein products and samples for different steps in the purification procedures were evaluated in SDS-Page gels.
(§2) SPR measurements were performed on Biacore T200 instrument (GE Healthcare) at 25 °C. Purified P. falciparum Hsp90 and PfGRP94 N-terminal domain, and full-length human Hsp90α were immobilized on a CM5 sensorchip using NHS/EDC coupling following the manufacturer protocol to a level of <10,000 RUs, a reference surfaces without immobilized proteins served as a control for nonspecific binding and refractive index changes. Seven different concentrations of the ligands between 0.4 nM and 1 mM, were injected in triplicate over the sensor chip at 30 μL/min in random order. The running buffer was 10 mM HEPES, pH 7.4, 150 mM NaCl, 0.005% P20, 1% DMSO and 2 mM MgCl2. Buffer alone injections were used as blanks. The sensor surface was regenerated between injections with a short injection of a buffer 10 mM HEPES, pH 7.4, 150 mM NaCl, 0.005% P20 and 3 mM EDTA. The Biacore responses recorded during the 30 s of the injection were used to estimate the association constant (k on) and the 300 s after the injection were used to estimate the dissociation constant (k off). All kinetic constants were estimated using double subtracted sensorgrams using BiaEvaluation Software (GE Healthcare), the kinetic constants were used to calculate the dissociation constant (K d).

P. falciparum Grp94 = P. falciparum Grp94 (Plasmodium falciparum, UniProt Q8I0V4); assay: biochemical; format: binding
Sequence of P. falciparum Grp94 (Q8I0V4 entry or part of it): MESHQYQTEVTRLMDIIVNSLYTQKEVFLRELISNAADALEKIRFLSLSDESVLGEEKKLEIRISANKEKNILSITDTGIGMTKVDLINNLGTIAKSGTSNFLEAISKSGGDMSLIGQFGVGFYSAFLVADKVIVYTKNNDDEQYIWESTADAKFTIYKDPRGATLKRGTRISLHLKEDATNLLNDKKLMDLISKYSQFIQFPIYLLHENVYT
Experimental: as §1, §2

human Hsp90α = molecular target: T1, human Hsp90α (Homo sapiens, UniProt P07900); assay: Biacore SPR analysis, full-length human Hsp90α; format: binding; conditions: for kon: read-out: ka
T1 construct: Full-length human recombinant HSP90α was purchased; purchased Cayman Chemicals, MI
Experimental: as §1
as §2, with “Seven different concentrations of the ligands between 0.4 nM and 1 mM, were injected in triplicate over the sensor chip at 30 μL/min in random order.” left out

[1] = tested on: P. falciparum chloroquine resistant W2; assay: Growth inhibition assay (SYBR Green I), W2; conditions: W2, 72 h
Experimental: (§5) A 50% suspension of non-infected O positive erythrocytes was added every 2 days to adjust haematocrit to 5%. Parasite cultures were maintained at 37 °C in 5% O2 and 5% CO2 atmosphere with daily changes of culture media.
(§6) A synchronized P. falciparum culture, with over 80% ring forms, was used in the growth inhibition assay. […] A 190 μL aliquot of parasite culture was dispensed per well to microplates that were pre-dispensed with the compounds at various dilutions. […] Dilutions of Hsp90 inhibitors and DHA were prepared in water with a final concentration of DMSO below 0.05% (v/v).
(§7) The microplates were incubated at 37 °C in a controlled atmosphere (5% O2, 5% CO2 Nitrogen balanced) for 72 h. After incubation, the plates were subject to a freeze–thaw cycle (−80 °C) and the parasite growth was quantified by the SYBR Green I method as previously described [33]. Briefly, 100 µL of homogenized parasite culture was transferred into 96-well black plates. […] The plates were incubated at room temperature in darkness for 1 h.
(§8) Growth inhibition experiments were conducted at least three times per compound (biological replicates, n ≥ 3). The IC50 differences for each inhibitor between the two P. falciparum strains were compared with a t test.

[2] = tested on: P. falciparum chloroquine sensitive 3D7; assay: Growth inhibition assay (SYBR Green I), 3D7; conditions: 3D7, 72 h
Experimental: as §5, §6, §7, §8

P. falciparum W2 [3] = assay: Recrudescence assay, W2; format: cell-based, Plasmodium falciparum
Experimental: (§3) The assay is a modification of the previously reported bulk recrudescence assay. […] […] After drug exposure, the medium containing the drug was removed and the cultures were washed twice with compound-free media, and resuspended in RPMI to adjust haematocrit to 5%. The medium was changed every day and red blood cells were added every 2 days to adjust the haematocrit. The cultures were monitored daily until they reached 10% parasitaemia, which represented the end point of the experiment. Culture parasitaemia was determined by scoring >2000 erythrocytes in Giemsa-stained thin blood films as parasitized or not. The median number of days to reach this level of parasitaemia was reported for all the experiments. All experiments were conducted in triplicate; each replica was conducted on different days. The differences in the recovery times between control cultures to those exposed to Hsp90 inhibitors were analysed using the non-parametric statistic Kruskal–Wallis test. If the overall test was significant then Dunn’s multiple comparison tests were used to identify significant differences among pair comparisons. The same statistical analysis was applied when comparing P. falciparum cultures exposed to DHA alone versus DHA in combination with Hsp90 inhibitors. […] The statistical analyses were performed with the software Prism v6 (GraphPad Software, San Diego, CA).

P. falciparum 3D7 [4] = assay: Recrudescence assay, 3D7; format: cell-based, Plasmodium falciparum
Experimental: as §3

P. falciparum 3D7 [5] = assay: Parasite stage specific effect, 3D7; format: cell-based, Plasmodium falciparum; conditions: 3D7, 24 h; 17-DMAG 1.2 µM, NVP-AUY922 0.72 µM
Experimental: (§4) Synchronized P. falciparum cultures were used to determine the susceptibility of different parasite stages to Hsp90 inhibitors. Three synchronized cultures per strain, with a majority of the parasites in the ring (0–26 h post red blood cell infection), trophozoite (26–38 h) or schizont (38–48 h) stages respectively (Fig. 3). […] The cultures were exposed to one concentration of the Hsp90 inhibitor for 24 h. […] For each three exposed the cultures and the control for both strains 3D7 and W2, the parasitaemia and the developmental stage of the parasites were recorded. Before and after drug exposure, Giemsa-stained blood smears were scored by microscopy examination counting 100 infected erythrocytes per culture, and the proportion of each developmental stage was calculated.

P. falciparum W2 [6] = assay: Parasite stage specific effect, W2; format: cell-based, Plasmodium falciparum; conditions: W2, 24 h; 17-DMAG 1.2 µM, NVP-AUY922 0.72 µM
Experimental: as §4

[7] = tested on: Primary normal human lung fibroblasts (NHLFs); assay: Drug cytotoxicity assay (MTT); conditions: 24 h
Experimental: Primary normal human lung fibroblasts (NHLFs) were seeded on 24-well plates and cultured in FGM-2 media (LONZA, Basel, Switzerland) until they reached 80% confluency. […] Briefly, 50 µL of MTT dye was added into the media and the cells were returned to the incubator for 3 h. Then 500 µL of solubilization solution was added to dissolve the MTT formazan crystals. […] The drug cytotoxicity assay was performed in triplicate.

[8] = parameters: method as in PMID 18020435; conditions: mice, 50 mg/kg; read-out: Cmax in plasma; cited from earlier work
[9] = SPR, 25 °C, calculated from kinetic constants, read-out: Kd
[10] = Plasmodium falciparum, synchronized ring culture
[11] = Kd, SPR, 25 °C, calculated from kinetic constants

Sequence of P. falciparum Hsp90 (Q8IC05 entry or part of it): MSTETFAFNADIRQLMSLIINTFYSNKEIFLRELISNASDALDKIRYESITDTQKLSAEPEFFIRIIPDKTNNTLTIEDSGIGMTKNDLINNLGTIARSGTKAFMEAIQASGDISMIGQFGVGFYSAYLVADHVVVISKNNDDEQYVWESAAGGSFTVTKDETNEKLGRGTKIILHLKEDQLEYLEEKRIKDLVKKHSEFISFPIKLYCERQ

SMILES | ka (P. falciparum Hsp90; SPR, 25 °C) | kd (P. falciparum Hsp90; SPR, 25 °C) [s⁻¹] | ka (P. falciparum Grp94; SPR, 25 °C) [M⁻¹ s⁻¹] | kd (P. falciparum Grp94; SPR, 25 °C) [s⁻¹] | IC90 ([1]; Plasmodium falciparum) [µM] | pIC50 [1, 10] | pKd (P. falciparum Grp94) | IC90 ([2]; Plasmodium falciparum) [µM] | pIC50 [2, 10] | also measured
Nc1ncnc2c1ncn2[C@@H]1O[C@H](COP(=O)(O)OP(=O)(O)O)[C@@H](O)[C@H]1O [ADP] | 107 M⁻¹ s⁻¹ | 0.002 | 1360 | 0.003 | – | – | – | – | – | pKd (P. falciparum Hsp90; [9]): 4.69; pKd (P. falciparum Grp94; [9]): 5.66; ka (human Hsp90α; SPR, 25 °C): 109 M⁻¹ s⁻¹; kd (human Hsp90α; SPR, 25 °C): 0.006 s⁻¹; pKd (human Hsp90α; SPR, 25 °C, calculated from kinetic constants): 4.20
CC(C)c1cc(C(=O)N2Cc3ccc(CN4CCN(C)CC4)cc3C2)c(O)cc1O [AT13387, (2,4-dihydroxy-5-isopropylphenyl)-[5-(4-methylpiperazin-1-ylmethyl)-1,3-dihydroisoindol-2-yl]methanone] | 212 M⁻¹ s⁻¹ | 0.009 | 216 | 0.643 | 5.37 | 6.28 | 2.53 | 4.57 | 6.18 | pKd (P. falciparum Hsp90; [11]): 4.33; kd (human Hsp90α; SPR, 25 °C): 0.348 s⁻¹; kon (human Hsp90α): 570 M⁻¹ s⁻¹
CCN(CC)CCCC(C)Nc1ccnc2cc(Cl)ccc12 (stereo not shown) [CQ, Chloroquine] | – | – | – | – | 0.39 | – | – | 0.0672 | – | pIC50 ([1]; Plasmodium falciparum): 6.89; pIC50 ([2]; Plasmodium falciparum): 7.42
C[C@H]1[C@@H](O)O[C@@H]2O[C@@]3(C)CC[C@H]4[C@H](C)CC[C@@H]1[C@@]24OO3 [DHA, dihydroartemisinin] | – | – | – | – | 0.0018 | 9.30 | – | 0.0052 | 8.92 | days to recover to 10% parasitaemia (median) (P. falciparum W2 [3]; W2, 100 nM for 48 h): 13 days; days to recover to 10% parasitaemia (median) (P. falciparum 3D7 [4]; 3D7, 100 nM for 48 h): 12 days
COC1=C2C[C@@H](C)C[C@H](OC)[C@H](O)[C@@H](C)/C=C(\C)[C@H](OC(N)=O)[C@@H](OC)/C=C\C=C(/C)C(=O)NC(=CC1=O)C2=O [Geldanamycin, geldanamycin] | – | – | – | – | 2.63 | – | – | 1.7 | – | pIC50 ([1]; Plasmodium falciparum): 6.70; pIC50 ([2]; Plasmodium falciparum): 6.67
CCNC(=O)c1noc(-c2cc(C(C)C)c(O)cc2O)c1-c1ccc(CN2CCOCC2)cc1 [NVP-AUY922] | – | – | – | – | 0.46 | ~7.12 | 8.05 | 0.646 | ~7.12 | effect against all parasite stages (ring, trophozoite, schizont) (P. falciparum 3D7 [5]): effective against all parasite stages; pIC50 ([1]; synchronized ring culture): 7.12; ka (P. falciparum Hsp90): 107,000 1/Ms; kd (P. falciparum Hsp90): 0.001 s⁻¹; pKd (P. falciparum Hsp90; Kd): 7.89; pKd (P. falciparum Hsp90; Kd against the parasite chaperone): 7.88; ka (P. falciparum Grp94): 438,000 1/Ms; kd (P. falciparum Grp94): 0.004 s⁻¹; effect against all parasite stages (ring, trophozoite, schizont) (P. falciparum W2 [6]): effective against all parasite stages; pIC50 ([7]; Homo sapiens, Fibroblast, read-out: IC50 against human cells): < 5.00; growth inhibition for the human cells ([7]; NHLF, 0.5 to 10 µM): ≤ 25%; Cmax [8]: 35 µM; recovery time in combination with DHA vs DHA alone (P. falciparum W2 [3]; W2, 48 h, two concentrations plus DHA 100 nM): only significant in the case of P. falciparum W2; delay of culture recovery vs untreated control (cytocidal activity) (P. falciparum W2 [3]; W2, 48 h exposure, 17-AAG 1.5-6 µM, 17-DMAG 0.3-1.2 µM, NVP-AUY922 0.18-0.72 µM): (0.36 and 0.72 µM) significantly delayed the parasite recovery; also recorded: strong cytotoxic activities; recovery time in combination with DHA vs DHA alone (P. falciparum 3D7 [4]; 3D7, 48 h, two concentrations plus DHA 100 nM): increase in the time required to reach 10% parasitaemia; delay of culture recovery vs untreated control (cytocidal activity) (P. falciparum 3D7 [4]; 3D7, 48 h exposure, 17-AAG 1.5-6 µM, 17-DMAG 0.3-1.2 µM, NVP-AUY922 0.18-0.72 µM): (0.36 and 0.72 µM) significantly delayed the parasite recovery; also recorded: strong cytotoxic activities; pIC50 ([2]; synchronized ring culture): 7.12
CC(C)NCCCn1c(Sc2cc3c(cc2I)OCO3)nc2c(N)ncnc21 [PUH71] | – | – | – | – | > 10 | – | – | – | – | pIC50 ([1]; Plasmodium falciparum): 5.35; ka (P. falciparum Hsp90): 356,000 1/Ms; kd (P. falciparum Hsp90): 0.005 s⁻¹; pIC50 ([2]; Plasmodium falciparum): 5.41; kd (human Hsp90α): 0.007 s⁻¹
CC(C)NCCCn1c(Sc2cc(Cl)cc(Cl)c2)nc2c(N)ncnc21 [PUWS13] | 598,000 1/Ms | 0.041 | 149 | 0.843 | 9.06 | 5.41 | 2.25 | – | 5.15 | pKd (P. falciparum Hsp90; [11]): 7.16; kd (human Hsp90α; SPR, 25 °C): 0.022 s⁻¹; kon (human Hsp90α): 811 M⁻¹ s⁻¹
CC1(C)CC(=O)c2c(C(F)(F)F)nn(-c3ccc(C(N)=O)c(N[C@H]4CC[C@H](O)CC4)c3)c2C1 [SNX-2112] | 20,300 1/Ms | 0.003 | 4720 | 0.0006 | > 10 | 5.77 | – | – | – | –
CC1(C)CC(=O)c2c(C(F)(F)F)nn(-c3ccc(C(N)=O)c(N[C@H]4CC[C@H](OC(=O)CN)CC4)c3)c2C1 [SNX-5422] | – | – | – | – | 6.65 | 5.70 | – | 4.32 | 5.67 | –
CC(C)c1cc(-c2n[nH]c(=O)n2-c2ccc3c(ccn3C)c2)c(O)cc1O [STA-9090] | 1.27 M⁻¹ s⁻¹ | 1.5e-07 | 1.7e+06 | 0.003 | > 10 | 5.89 | 9.00 | 4.11 | 5.90 | pKd (P. falciparum Hsp90; Kd): 6.92
